Drawing on US20210139477A1, “ALK5 INHIBITORS, CONJUGATES, AND USES THEREOF” (Silverback Therapeutics, Inc., priority 2019, published 2021), this text covers IC50 and EC50 for eight compounds.

One assay concerns the target T1, ALK5 (Homo sapiens, UniProt P36897).
T1 construct: purchased Reaction Biology Corp (Malvern, Pa.)
T1 sequence (P36897 34-503): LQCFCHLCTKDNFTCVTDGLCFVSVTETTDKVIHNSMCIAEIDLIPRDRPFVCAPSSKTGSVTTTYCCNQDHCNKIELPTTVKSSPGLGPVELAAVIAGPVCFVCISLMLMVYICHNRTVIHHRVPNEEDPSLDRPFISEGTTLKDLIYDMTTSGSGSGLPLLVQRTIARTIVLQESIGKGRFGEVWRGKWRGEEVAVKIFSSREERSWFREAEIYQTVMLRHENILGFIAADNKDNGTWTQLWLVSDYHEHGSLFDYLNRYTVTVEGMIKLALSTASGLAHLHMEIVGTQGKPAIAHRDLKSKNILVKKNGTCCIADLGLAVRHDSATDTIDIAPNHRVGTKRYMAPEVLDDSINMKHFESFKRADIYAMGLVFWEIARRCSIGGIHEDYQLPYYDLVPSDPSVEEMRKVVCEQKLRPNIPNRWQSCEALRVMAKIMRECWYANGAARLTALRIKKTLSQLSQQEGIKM
Put plainly: ALK5 enzyme inhibition assay (Reaction Biology Corp, 33P-ATP filter-binding, casein substrate). As to conditions: 10 uM ATP, 2 hours at room temperature. Type of assay: biochemical. On the procedure:
ALK5 enzyme inhibition assays were performed by Reaction Biology Corp (Malvern, Pa.). 1 mg/mL of peptide substrate (casein) and 10 uM ATP were prepared in a mixture of fresh reaction buffer. The kinase was delivered into the substrate solution which was gently mixed. Compounds in 100% DMSO were added to the kinase reaction mixture by Acoustic technology (Echo550; nanoliter range) and the mixture was incubated for 20 min at room temperature. ^33P-ATP (Specific activity 10 uCi/uL) was added into the reaction mixture to initiate the reaction and the reaction mixture was incubated for 2 hours at room temperature. Radioactivity was detected by filter-binding method and kinase activity data were expressed as the percent remaining kinase activity in test samples compared to vehicle (dimethyl sulfoxide) reactions. IC50 values and curve fits were obtained using Prism (GraphPad Software).

Assay [1] deals with TGFb/SMAD Signaling Pathway SBE reporter cell line. In words: TGFb reporter assay (TGFb/SMAD Signaling Pathway SBE luciferase reporter cell line). As to conditions: 5-6 h preincubation, then TGFb, 18 h, luciferase luminescence. Type of assay: cell-based. On the procedure:
TGFβ/SMAD Signaling Pathway SBE reporter cell line was obtained from BPS Bioscience. Cells were passed, expanded, and stored in liquid nitrogen as per the supplier's instructions with the exception that growth media is changed to DMEM-C with Geneticin (DMEM supplemented with 10% fetal bovine serum, 1×NEAA, 1 mM Pyruvate, 2 mM glutamine, 50 μg/mL penicillin, 50 U/mL streptomycin and 400 μg/mL of Geneticin). The assay media was MEM supplemented with 0.5% fetal bovine serum, 1×NEAA, 1 mM Pyruvate, 50 μg/mL penicillin and 50 U/mL streptomycin.
TGFb/SMAD Signaling Pathway SBE reporter cell line was obtained from BPS Bioscience. Cells were passed/expanded/stored in liquid nitrogen per supplier's instruction with the exception that growth media was changed to DMEM-C with Geneticin (DMEM supplemented with 10% fetal bovine serum, IX NEAA, 1 mM Pyruvate, 2 mM glutamine, 50 μg/mL penicillin, 50 U/mL streptomycin and 400 ug/mL of Geneticin). The assay media was MEM supplemented with 0.5% fetal bovine serum, IX NEAA, 1 mM Pyruvate, 50 μg/mL penicillin and 50 U/mL streptomycin.
Reporter cells were harvested from the tissue culture flasks by incubation in small quantity of Versene at room temperature for three to five minutes after the media in the flask was removed and cells rinsed with PBS. Cells were counted and diluted in the assay media at 0.8×10^6 cells/mL then 50 uL/well were added to 96-well assay plate. Test samples (at desired concentrations diluted in assay media) were added to assay plate containing the 50 uL/well of cells (or media only), 50 uL per well, and incubated for 5-6 hours at 37° C. in a 5% CO2 humidified incubator. After that time, 15 uL of TGFb diluted to 12.5 ng/mL in the assay media was added to the plate. Controls included TGFb titration (from 25 to 0 ng/mL) without inhibitors, and media only (without cells, inhibitor or TGFb). Plates were incubated at 37° C. in a […] humidified incubator for 18 h. Luciferase substrate solution was subsequently added at 75 uL per well, incubated in dark with shaking at room temperature for 10 min, and luminescence was measured using a luminometer.
For orientation: Reporter assays use an easily measured gene product as a stand-in for the process of interest.

`Cc1cccc(-c2nc(CN[C@@H](C)c3ccccc3)[nH]c2-c2ccc3ncnn3c2)n1` [Compound 12]: the IC50 on ALK5 was 1000 to 10000 nM. In assay [1], this compound returned an EC50 of 100 to 1000 nM.
The corresponding values for `COC(=O)[C@@H](NCc1nc(-c2cccc(C)n2)c(-c2ccc3ncnn3c2)[nH]1)c1ccccc1` [Compound 16] are 0.1 to 50 nM and 100 to 1000 nM.
In assay [1], `Cc1cccc(-c2nc(CNCc3ccccc3-c3ccccc3CN)[nH]c2-c2ccc3ncnn3c2)n1` [Compound 32] yielded an EC50 of 100 to 1000 nM.
As to `Cc1cccc(-c2nc(CNCc3ccccc3-c3ccccc3CNC(=O)OC(C)(C)C)[nH]c2-c2ccc3ncnn3c2)n1` [Compound 29], the EC50 in assay [1] lay within 100 to 1000 nM.
Same read-out and setting: under `COc1ccc(OC)c(CNCc2nc(-c3cccc(C)n3)c(-c3ccc4ncnn4c3)[nH]2)c1` [Compound 9] stands 10 to 100 nM; under `Cc1cccc(-c2nc(CNCc3ccc(Cl)c(Cl)c3)[nH]c2-c2ccc3ncnn3c2)n1` [Compound 4], 100 to 1000 nM; under `Cc1cccc(-c2nc(CNCc3ccccc3)[nH]c2-c2ccc3c(c2)OCO3)n1` [Compound 76], 10 to 100 nM.
The same measure, in the same setting: the result for `COc1ccccc1CCNCc1nc(-c2cccc(C)n2)c(-c2ccc3ncccc3n2)[nH]1` [Compound 84] reads 0.1 to 10 nM.

For orientation: IC50 means the concentration needed to halve the response being measured. A low value points to greater potency. Usually EC50 stands for the concentration at which the effect is half-maximal. A low value points to an effect from little substance.
